Measured values taken from patent US20240199676A1, “ANTIVIRAL COMPOUNDS AND METHODS OF MAKING AND USING THE SAME” (Gilead Sciences, Inc., priority 2022, published 2024).

Key:
[1] = GI S9 stability (Ex. Z), cyno intestinal S9; type: in vitro ADME; details: cynomolgus monkey, pooled intestinal S9 fractions; cyno intestinal S9, 1.0 mg/mL protein, 2 μM substrate, pH 7.4; read-out: GIS9 Cyno T½ (per Ex. Z)
Description: (§1) Example Z: GI S9 stability data:
(§2) Stock solutions of test compounds in dimethyl sulfoxide (DMSO) having a final concentration of 10 mM were prepared and used in all experiments. Sekisui XenoTech (Kansas City, KS) provided pooled intestinal S9 fractions. All other chemicals were purchased from Sigma-Aldrich (St. Louis, MO) or VWR (West Chester, PA). Internal Standard/Quench (IS/Q) used to stop reactions was 100 nM labetalol in (by volume) methanol (10%) and acetonitrile (90%).
(§3) Stability in Intestinal S9 Fractions: Duplicate aliquots of test compound or positive control substrate were added to S9 stock diluted with phosphate buffered saline (137 mM NaCl, 2.7 mM KCl, 10 mM phosphate buffer), pH 7.4, to obtain a protein concentration of 1.0 mg/mL. The metabolic reactions were initiated by the addition of the substrates to the S9 reaction mixture to a final concentration of 2 μM. At 0, 10, 20, 30, 60 and 120 min, 25 μL aliquots of the reaction mixture were transferred to plates containing 225 μl of IS/Q solution. After quenching, the plates were centrifuged at 3000×g for 30 minutes. 150 μL aliquots of each supernatant were dried down then reconstituted with 300 μL water. Aliquots (10 μL) of the prepared samples were analyzed on a Thermo Q-Exactive mass spectrometer as described below.
(§4) Liquid Chromatography—Mass Spectrometry: Quantification of test compounds and control substrate was performed by analyte/internal standard peak area ratio (PAR) values measured on a Thermo Q-Exactive mass spectrometer coupled to a Dionex UltiMate 3000 HPLC with a Leap Technologies HTC PAL autosampler. The column used for analysis was a Waters Acquity BEH C18 (1.7 μm particle size, 2.1×50 mm). Mobile phase A consisted of 0.1% (v/v) formic acid in water. Mobile phase B consisted of 0.1% (v/v) formic acid in acetonitrile. Elution of analytes was achieved by a series of linear gradients varying the proportions of A and B. The mass spectrometer was calibrated on a weekly basis and mass tolerance of 5 ppm was used.
(§5) Metabolic stabilities in S9 fractions were determined by measuring the rates of disappearance of test compound and positive control substrate.
(§6) Data (% of substrate remaining) were plotted on a semi-log scale and fitted using an exponential decline model:
(§7) Where Ct—% of substrate remaining at time=t; C0—% of substrate remaining at time=0; t—time; T½—half-life The Half-life (T½) is determined by the following equation: […]
(§8) Assuming a first-order reaction, the slope (k) is extrapolated from the aforementioned plotted data.

[2] = GI S9 stability (Ex. Z), dog intestinal S9; type: in vitro ADME; details: pooled intestinal S9 fractions; dog intestinal S9, 1.0 mg/mL protein, 2 μM substrate, pH 7.4; read-out: GIS9 DOG T½ (per Ex. Z)
Description: as §1, §2, §3, §4, §5, §6, §7, §8

[3] = GI S9 stability (Ex. Z), rat intestinal S9; type: in vitro ADME; details: pooled intestinal S9 fractions; rat intestinal S9, 1.0 mg/mL protein, 2 μM substrate, pH 7.4; read-out: GIS9 Rat T½ (per Ex. Z)
Description: as §1, §2, §3, §4, §5, §6, §7, §8

[4] = system: Respiratory syncytial virus recombinant with luciferase (RSV-Luc5) in NHBE cells; test: NHBE RSV-Luc5 384-well Assay (RSV FLUC NHBE 384 V2, Ex. W); type: cell-based; details: human respiratory syncytial virus, 72 h, read-out: EC50 RSV FLUC NHBE 384 V2 (per Ex. W)
Description: Example W: NHBE RSV-Luc5 384-well Assay (EC50 RSVFLUC NHBE-384)
Normal Human Bronchial Epithelial (NHBE) cells were purchased from Lonza (Walkersville, MD Cat #CC2540) and maintained in BEGM Bronchial Epithelial Cell Growth Medium BulletKit (Lonza CC-3170).
Cells were thawed, expanded, and were used for experiments at passage 2. Respiratory syncytial virus recombinant with luciferase (RSV-Luc5) (≥1×10^7 Infectious Units/mL (IU/mL) determined by TCID50) was purchased from Microbiologics (Saint Cloud, MN). Viral replication was determined in NHBE cells in the following manner.
(§9) Compounds are prepared in 100% DMSO in 384-well polypropylene plates (Greiner, Monroe, NC, Cat #784201) with 8 compounds per plate in grouped replicates of 4 at 10 serially diluted concentrations (1:3). The serially diluted compounds were transferred to low dead volume Echo plates (Labcyte, Sunnyvale, CA, Cat #LP-0200).
The test compounds were spotted to 384-well assay plates (Greiner, Monroe, NC, Cat#781091) at 200 nL per well using an Echo acoustic dispenser (Labcyte, Sunnyvale, CA). NHBE cells were harvested and suspended in BEGM Bronchial Epithelial Cell Growth Medium BulletKit and seeded to the pre-spotted assay plates at 5,000 cells per well in 30 μL. RSV-Luc5 virus was diluted in BEGM Bronchial Epithelial Cell Growth Medium BulletKit at 500,000 Infectious Units (IU) per mL and 10 μL per well was added to the assay plates containing cells and compounds, for an MOI of 1. The assay plates were incubated for 3 days at 37° C. and 5% CO2. At the end of incubation, One-Glo reagent (Promega, Madison, WI, Cat #E6120) was prepared. The assay plates and One-Glo reagent were equilibrated to room temperature for at least 15 minutes. 40 μL per well of One-Glo reagent was added and the plates were incubated at room temperature for 15 minutes before reading the luminescence signal on an EnVision multimode plate reader (Perkin Elmer, Waltham, MA). Remdesivir was used as positive control and DMSO was used as negative control. Values were normalized to the positive and negative controls (as 0% and 100% replication, respectively) and data was fitted using non-linear regression analysis by Gilead's dose response tool. The EC50 value for each compound was defined as the concentration reducing the viral replication by 50%.

[5] = system: Respiratory syncytial virus recombinant with luciferase (RSV-Luc5) in HEp-2 cells; test: HEp-2 RSV-Luc5 384-well Assay (EC50 RSVFLUC Hep2-384 v2, Ex. V); type: cell-based; details: human respiratory syncytial virus, HEp-2, 72 h, read-out: EC50 RSV FLuc Hep-2 384 V2 (per Ex. V)
Description: Example V: HEp-2 RSV-Luc5 384-well Assay (EC50 RSVFLUC Hep2-384 v2)
HEp-2 cell line was purchased from ATCC (Manassas, VA Cat #CCL-23) and maintained in Dulbecco's […] (DMEM) (Corning, New York, NY, Cat #15-018CM) supplemented with 10% fetal bovine serum (FBS) (Hyclone, Logan, UT, Cat #SH30071-03) and 1× Penicillin-Streptonycin-L-Glutamine (Corning, New York, NY, Cat #30-009-CI). Cells were passaged 2 times per week to maintain sub-confluent densities and were used for experiments at passage 5-20. Respiratory syncytial virus recombinant with luciferase (RSV-Luc5) (≥1 ×107 TCID50/ml) was purchased from Microbiologics (Saint Cloud, MN). Viral replication was determined in HEp-2 cells in the following manner.
as §9
The test compounds were spotted to 384-well assay plates (Greiner, Monroe, NC, Cat#781091) at 200 nL per well. HEp-2 cells were harvested and suspended in DMEM (supplemented with 10% FBS and 1× Penicillin-Streptonycin-L-Glutamine) and seeded to the pre-spotted assay plates at 4,000 cells per well in 30 μL. RSV-Luc5 viruses were diluted in DMEM (supplemented with 10% FBS and 1× Penicillin-Streptomycin-L-Glutamine) at 200,000 Infectious Units (IU) per mL and 10 μL per well was added to the assay plates containing cells and compounds, for an MOI=0.5. The assay plates were incubated for 3 days at 37° C. and 5% CO2. At the end of incubation, One-Glo reagent (Promega, Madison, WI, Cat #E6120) was prepared. The assay plates and One-Glo reagent were equilibrated to room temperature for at least 15 minutes. 40 μL per well of One-Glo reagent was added and the plates were incubated at room temp for 15 minutes before reading the luminescence signal on an EnVision multimode plate reader (Perkin Elmer, Waltham, MA). Remdesivir was used as positive control and DMSO was used as negative control. Values were normalized to the positive and negative controls (as 0% and 100% replication, respectively) and data was fitted using non-linear regression analysis by Gilead's dose response tool. The EC50 value for each compound was then determined as the concentration reducing the viral replication by 50%.

Row | SMILES | half-life at 2 μM [1] [min] | half-life at 2 μM [2] [min] | half-life at 2 μM [3] [min] | EC50 [4] [µM] | EC50 [5] [µM]
1 | CC(C)C(=O)Nc1ncnn2c([C@@H]3O[C@](C#N)(COC(=O)C(C)C)[C@@H](OC(=O)C(C)C)[C@H]3OC(=O)C(C)C)ccc12 [Compound 21, (2R,3S,4S,5S)-2-cyano-5-(4-isobutyramidopyrrolo[2,1-f][1,2,4]triazin-7-yl)-2-((isobutyryloxy)methyl)tetrahydrofuran-3,4-diyl bis(2-methylpropanoate)] | 4 | 5 | 1 | 9.08 | 
2 | CC(=O)Nc1ncnn2c([C@@H]3O[C@](C#N)(COC(C)=O)[C@@H](O)[C@H]3O)ccc12 [Compound 31] |  |  |  | 50 | 50
